Assay results: patent publication US9247759B2, “Identification of human T2R receptors that respond to bitter compounds that elicit the bitter taste in compositions, and the use thereof in assays to identify compounds that inhibit (block) bitter taste in compositions and use thereof” (SENOMYX, INC., priority 2007, dated 2016)
Like-named read-outs stand apart in the source and are kept apart here.

What was measured:
hT2R8 [1] = target: T1, hT2R8 (Homo sapiens (Human), UniProt Q9NYW2); settings: compared with taster hT2R43-W35 and hT2R44-W35 alleles, FIG. 6
Source text: FIG. 6 is a plot of receptor activity as a function of log of the saccharin concentration.
Pronin et al., Curr. Biol. 17: 1403-8 (2007). Five individuals with the “taster” alleles (hT2R43-W35 and/or hT2R44-W35) and five with the “non-taster” alleles (hT2R43-S35 and hT2R44-R35) were selected based on genotyping analysis. Each subject was presented with 6 pairs of solutions and asked to determine which of the samples in a pair tasted more bitter.

hT2R8 [2] = target: T1, hT2R8; assay: hT2R8 antagonist high-throughput FLIPR assay, stable cell line with G16g44, agonist andrographolide; type: cell-based
Outline: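 Antagonist screen: compounds co-applied with agonist andrographolide at 200 μM, a dose giving 70–80% of maximal hT2R8 activation. Fluorescence measured by FLIPR in a stable HEK293 line expressing both hT2R8 and the promiscuous G16g44 protein.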

[3] = tested on: bitter taste of instant coffee; assay: 2-alternative forced choice taste test, instant coffee with hT2R8 antagonists; type: in vivo, human; settings: antagonist 5 μM
Protocol: Taste tests were performed with hT2R8 antagonists in instant coffee using a 2-alternative forced choice method with a taste panel of 15-20 panelists. Coffee samples with the antagonists were given to the taste panelists together with the same sample without antagonists, the panelists were asked to identify the bitterer sample within the pair.

[4] = tested on: bitterness of T2R8 specific agonist; assay: Taste test with T2R8 specific agonist comparing a control bitter blocker and compound of interest; type: in vivo, human; settings: antagonist conc. 1
Protocol: To determine the effectiveness of an individual antagonist, taste tests were performed with a T2R8 specific agonist, the compound of interest and a reference bitter blocker. We have previously described a good hT2R8 antagonist that was proven to have taste effect, Example 4-8 from U.S. Provisional Appl. Ser. No. 60/957,129, filed Aug. 21, 2007: N-(1-((3,5-dimethylisoxazol-4-yl)methyl)-1H-pyrazol-4-yl)benzo[d][1,3]dioxole-5-carboxamide.

T1 sequence (Q9NYW2 whole entry): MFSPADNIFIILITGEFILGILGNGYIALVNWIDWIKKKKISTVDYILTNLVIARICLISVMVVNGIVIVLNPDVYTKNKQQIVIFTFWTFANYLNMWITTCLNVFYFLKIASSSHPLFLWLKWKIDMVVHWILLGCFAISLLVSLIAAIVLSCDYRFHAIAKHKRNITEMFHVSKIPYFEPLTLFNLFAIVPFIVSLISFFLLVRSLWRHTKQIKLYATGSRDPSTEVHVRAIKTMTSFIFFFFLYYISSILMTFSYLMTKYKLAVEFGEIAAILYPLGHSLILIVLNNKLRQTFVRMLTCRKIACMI

Structure (SMILES)	responsiveness of hT2R8 to saccharin (hT2R8 [1])	IC50 (hT2R8 [2]; Table 6, read-out: HTS assay IC50) [µM]	IC50 (hT2R8 [2]; table after Example 10-97, read-out: hT2R8 IC50) [µM]	IC50 (hT2R8 [2]; unit uM, read-out: IC50 on hT2R08 bitter receptor) [µM]	Selected as bitterer: With antagonists [3]	Selected as bitterer: Without antagonists [3]	Selected as more bitter: +other ([4]; sample with 10-10)	Selected as more bitter: 10-8 ([4]; sample with control blocker 10-8)
O=C1NS(=O)(=O)c2ccccc21 [saccharin]	less responsive							
Cc1noc(C)c1Cn1cc(N2C(=O)CN(Cc3cccc(O)c3)C2=O)cn1 [Example 10-10, 3-(1-((3,5-dimethylisoxazol-4-yl)methyl)-1H-pyrazol-4-yl)-1-(3-hydroxybenzyl)imidazolidine-2,4-dione]		0.02 to 0.04	0.026	0.035	2	14	2	14
